Test results reported in paper PMC12298351, “Novel 3,19-(N-Phenyl-3-(4-fluorophenyl)-pyrazole) Acetal of Andrographolide Promotes Cell Cycle Arrest and Apoptosis in MDA-MB-231 Breast Cancer Cells” (Pharmaceuticals, 2025).

Legend:
SK-OV-3 = details: SK-OV-3, Ovarian
COLO 205 = details: COLO 205, Colon
DU-145 = details: DU-145, Prostate
NCI/ADR-RES = details: Ovarian
RPMI-8226 = details: RPMI-8226, Leukemia
SW-620 = details: SW-620, Colon
K-562 = details: K-562, Leukemia
MCF7 = details: MCF7, Breast
HT29 = details: HT29, Colon
SK-MEL-5 = details: SK-MEL-5, Melanoma
OVCAR-8 = details: OVCAR-8, Ovarian
SK-MEL-2 = details: SK-MEL-2, Melanoma
SF-295 = details: SF-295, CNS
OVCAR-5 = details: OVCAR-5, Ovarian
[1] = DPPH radical scavenging assay; details: 25 µM test compound, 0.1 mM DPPH, acetonitrile, 30 min
Experimental: A stable free radical DPPH (2,2-Diphenyl-1-picrylhydrazyl) assay was employed to test the antioxidant activity of all the synthesized compounds. Concisely, 25 µM of the test compounds were dissolved in acetonitrile and combined with 0.1 mM of DPPH (in acetonitrile) in a 1:2 ratio (80 µL and 160 µL). Then, the mixture was left undisturbed in the dark for 30 min at room temperature. After 30 min, the absorbance of the solutions was instantly measured at 517 nm using a Varioskan Multiplate Reader (Thermo Fisher Scientific, Mumbai, India). Ascorbic acid (in acetonitrile) was used as the positive control, and andrographolide and isoandrogapholide (in acetonitrile) were used as the standards. The following equation was used to determine the DPPH radical scavenging activity:% Radical scavenging activity = (Ac − As)/Ac × 100 where Ac = the absorbance of the blank (DPPH solution), and As = the absorbance of the test samples

786-0 = details: 786-0, Renal
SNB-19 = type: cell-based; details: SNB-19, CNS
M14 = type: cell-based; details: M14, Melanoma
UO-31 = details: UO-31, Renal
BT-549 = type: cell-based; details: BT-549, Breast
UACC-62 = details: UACC-62, Melanoma
OVCAR-4 = type: cell-based; details: OVCAR-4, Ovarian
RXF 393 = details: RXF 393, Renal
[2] = read-out: 50% lethal concentration (LC50)

For `C=C1CCC2C3(C)COC(c4cn(-c5ccccc5)nc4-c4ccccc4)OC3CCC2(C)C1CC=C1C(=O)OCC1O` (stereo not drawn) [1a], which GI50 (SK-OV-3) is on record?
The GI50 was 1.77 µM.

And the Total growth inhibition (TGI) (SK-OV-3)?
Its Total growth inhibition (TGI) is 18.7 µM.

And the CC50 (SK-OV-3; [2])?
Its CC50 is 91.1 µM.

And the GI50 (COLO 205)?
The GI50 was 2.01 µM.

What about the Total growth inhibition (TGI) (COLO 205) of the same molecule?
Its Total growth inhibition (TGI) is 3.57 µM.

What about the CC50 (COLO 205; [2]) of the same molecule?
The CC50 was 6.31 µM.

What about the GI50 (DU-145) of the same molecule?
The GI50 was 2.05 µM.

And the Total growth inhibition (TGI) (DU-145)?
Its Total growth inhibition (TGI) is 4.16 µM.

What about the GI50 (NCI/ADR-RES) of the same molecule?
Its GI50 is 4.75 µM.

And the Total growth inhibition (TGI) (NCI/ADR-RES)?
Its Total growth inhibition (TGI) is 5.31 µM.

What about the GI50 (RPMI-8226) of the same molecule?
The GI50 was 2.02 µM.

What about the Total growth inhibition (TGI) (RPMI-8226) of the same molecule?
Its Total growth inhibition (TGI) is 8.62 µM.

What about the CC50 (RPMI-8226; [2]) of the same molecule?
The CC50 was greater than 100 µM.

What about the Total growth inhibition (TGI) (NCI-H226; NCI-H226, Non-Small Cell Lung) of the same molecule?
Its Total growth inhibition (TGI) is 4.31 µM.

What about the GI50 (NCI-H226; NCI-H226, Non-Small-Cell Lung) of the same molecule?
The GI50 was 1.95 µM.

And the CC50 (NCI-H226; read-out: 50% lethal concentration (LC50), NCI-H226, Non-Small Cell Lung)?
Its CC50 is 9.55 µM.

And the GI50 (SW-620)?
The GI50 was 1.73 µM.

What about the Total growth inhibition (TGI) (SW-620) of the same molecule?
Its Total growth inhibition (TGI) is 3.68 µM.

And the CC50 (SW-620; [2])?
The CC50 was 7.82 µM.

And the GI50 (K-562)?
Its GI50 is 2.97 µM.

And the Total growth inhibition (TGI) (K-562)?
Its Total growth inhibition (TGI) is greater than 100 µM.

What about the CC50 (K-562; [2]) of the same molecule?
Its CC50 is greater than 100 µM.

What about the GI50 (MCF7) of the same molecule?
Its GI50 is 2 µM.

What about the Total growth inhibition (TGI) (MCF7) of the same molecule?
Its Total growth inhibition (TGI) is 9.09 µM.

And the CC50 (MCF7; [2])?
Its CC50 is greater than 100 µM.

What about the Total growth inhibition (TGI) (NCI-H23; NCI-H23, Non-Small Cell Lung) of the same molecule?
Its Total growth inhibition (TGI) is 3.08 µM.

What about the GI50 (NCI-H23; NCI-H23, Non-Small-Cell Lung) of the same molecule?
Its GI50 is 1.69 µM.

And the CC50 (NCI-H23; read-out: 50% lethal concentration (LC50), NCI-H23, Non-Small Cell Lung)?
Its CC50 is 5.64 µM.

What about the GI50 (HT29) of the same molecule?
Its GI50 is 2.37 µM.

What about the Total growth inhibition (TGI) (HT29) of the same molecule?
The Total growth inhibition (TGI) was 6.77 µM.

What about the CC50 (HT29; [2]) of the same molecule?
Its CC50 is greater than 100 µM.

And the GI50 (SK-MEL-5)?
Its GI50 is 1.4 µM.

What about the Total growth inhibition (TGI) (SK-MEL-5) of the same molecule?
The Total growth inhibition (TGI) was 2.7 µM.

What about the CC50 (SK-MEL-5; [2]) of the same molecule?
The CC50 was 5.2 µM.

And the GI50 (OVCAR-8)?
Its GI50 is 1.81 µM.

What about the Total growth inhibition (TGI) (OVCAR-8) of the same molecule?
The Total growth inhibition (TGI) was 4.02 µM.

And the CC50 (OVCAR-8; [2])?
The CC50 was greater than 100 µM.

What about the GI50 (SK-MEL-2) of the same molecule?
The GI50 was 1.74 µM.

And the Total growth inhibition (TGI) (SK-MEL-2)?
Its Total growth inhibition (TGI) is 3.54 µM.

And the CC50 (SK-MEL-2; [2])?
Its CC50 is 7.2 µM.

And the GI50 (SF-295)?
The GI50 was 1.64 µM.

What about the Total growth inhibition (TGI) (SF-295) of the same molecule?
Its Total growth inhibition (TGI) is 3.05 µM.

What about the CC50 (SF-295; [2]) of the same molecule?
The CC50 was 5.67 µM.

What about the GI50 (OVCAR-5) of the same molecule?
Its GI50 is 1.86 µM.

What about the CC50 (OVCAR-5; [2]) of the same molecule?
The CC50 was 8.71 µM.

What about the GI50 (SN12C; Renal) of the same molecule?
The GI50 was 1.87 µM.

And the Total growth inhibition (TGI) (SN12C; Renal)?
Its Total growth inhibition (TGI) is 3.96 µM.

And the CC50 (SN12C; read-out: 50% lethal concentration (LC50), Renal)?
Its CC50 is 8.37 µM.

And the “% DPPH radical scavenging activity” value [1]?
Its value is 58.66%.

What about the GI50 (786-0) of the same molecule?
Its GI50 is 2.03 µM.

What about the Total growth inhibition (TGI) (786-0) of the same molecule?
Its Total growth inhibition (TGI) is 4.47 µM.

What about the CC50 (786-0; [2]) of the same molecule?
Its CC50 is 9.83 µM.

What about the GI50 (SNB-19) of the same molecule?
Its GI50 is 1.85 µM.

And the Total growth inhibition (TGI) (SNB-19)?
The Total growth inhibition (TGI) was 3.78 µM.

What about the CC50 (SNB-19; [2]) of the same molecule?
The CC50 was 7.73 µM.

What about the Total growth inhibition (TGI) (A549/ATCC; Non-Small Cell Lung) of the same molecule?
Its Total growth inhibition (TGI) is 7.11 µM.

And the GI50 (A549/ATCC; Non-Small-Cell Lung)?
Its GI50 is 2.49 µM.

What about the CC50 (A549/ATCC; read-out: 50% lethal concentration (LC50), Non-Small Cell Lung) of the same molecule?
The CC50 was greater than 100 µM.

What about the GI50 (M14) of the same molecule?
The GI50 was 1.81 µM.

And the LC50 (50% lethal concentration) (M14)?
The LC50 (50% lethal concentration) was 7.23 µM.

What about the Total growth inhibition (TGI) (M14) of the same molecule?
Its Total growth inhibition (TGI) is 3.62 µM.

What about the GI50 (UO-31) of the same molecule?
Its GI50 is 1.35 µM.

And the Total growth inhibition (TGI) (UO-31)?
Its Total growth inhibition (TGI) is 2.69 µM.

What about the CC50 (UO-31; [2]) of the same molecule?
The CC50 was 5.36 µM.

What about the GI50 (BT-549) of the same molecule?
Its GI50 is 1.64 µM.

And the Total growth inhibition (TGI) (BT-549)?
Its Total growth inhibition (TGI) is 3.16 µM.

What about the CC50 (BT-549; [2]) of the same molecule?
Its CC50 is 6.1 µM.

And the GI50 (UACC-62)?
The GI50 was 1.65 µM.

And the Total growth inhibition (TGI) (UACC-62)?
Its Total growth inhibition (TGI) is 3.2 µM.

What about the CC50 (UACC-62; [2]) of the same molecule?
Its CC50 is 6.22 µM.

And the GI50 (CCRF-CEM; Leukemia)?
Its GI50 is 0.59 µM.

What about the Total growth inhibition (TGI) (CCRF-CEM; Leukemia) of the same molecule?
Its Total growth inhibition (TGI) is 3.37 µM.

And the CC50 (CCRF-CEM; read-out: 50% lethal concentration (LC50), Leukemia)?
The CC50 was greater than 100 µM.

And the GI50 (OVCAR-4)?
The GI50 was 2.31 µM.

What about the CC50 (OVCAR-4; [2]) of the same molecule?
The CC50 was greater than 100 µM.

And the GI50 (RXF 393)?
Its GI50 is 1.4 µM.

And the Total growth inhibition (TGI) (RXF 393)?
The Total growth inhibition (TGI) was 2.84 µM.

What about the CC50 (RXF 393; [2]) of the same molecule?
The CC50 was 5.76 µM.
